{"source": "patent US12201601B2", "about": "“Treatment for obesity” (Axsome Malta Ltd., priority 2013, dated 2025)", "assay": "6-week randomized, double blind, active and placebo-controlled study in adult subjects with major depressive disorder: body weight", "assay_type": "in vivo, Humans", "protocol": "A 6-week randomized, double blind, parallel group, active and placebo-controlled study was carried out to assess the efficacy of R228060 in adult subjects with major depressive disorder (MDD). Body weight was monitored throughout the study.", "key": {"[1]": {"details": "Paroxetine (N = 117), baseline to endpoint"}, "[2]": {"details": "Paroxetine group, baseline to endpoint"}}}
{"compound": "Fc1ccc([C@@H]2CCNC[C@H]2COc2ccc3c(c2)OCO3)cc1", "note": "[Paroxetine, reference compound]", "values": [{"measurement": "Subjects with weight Decrease ≥7%", "setting": "[1]", "result": "0 n (%)"}, {"measurement": "Subjects with weight Increase <7%", "setting": "[1]", "result": "54 (46.2) n (%)"}, {"measurement": "Subjects with weight Increase ≥7%", "setting": "[1]", "result": "1 (0.9) n (%)"}, {"measurement": "Subjects with weight No change/decrease <7%", "setting": "[1]", "result": "62 (53.0) n (%)"}, {"measurement": "Weight, End point, Mean", "setting": "Paroxetine group, 6-week study", "result": 83.2, "unit": "kg"}, {"measurement": "Weight, End point, Median", "setting": "Paroxetine group, 6-week study", "result": 79.8, "unit": "kg"}, {"measurement": "Mean weight gain", "setting": "[2]", "result": 0.1, "unit": "kg"}, {"measurement": "Weight, Change from Baseline, Mean", "setting": "[2]", "result": 0.1, "unit": "kg"}, {"measurement": "Weight, Change from Baseline, Median", "setting": "[2]", "result": 0.0, "unit": "kg"}, {"measurement": "Mean change from baseline to endpoint in BMI", "setting": "paroxetine", "result": 0}]}
